Results: the supplement of paper PMC10307832

These cell lines were tested with CC1=C(N=C(N=C1N)[C@H](CC(=O)N)NC[C@@H](C(=O)N)N)C(=O)N[C@@H]([C@H](C2=CN=CN2)OC3C(C(C(C(O3)CO)O)O)OC4C(C(C(C(O4)CO)O)OC(=O)N)O)C(=O)N[C@H](C)[C@H]([C@H](C)C(=O)N[C@@H]([C@@H](C)O)C(=O)NCCC5=NC(=CS5)C6=NC(=CS6)C(=O)NCCC[S+](C)C)O [Bleomycin] + C[C@]1(O)C[C@@H](c2nc(-c3ccc4ccc(-c5ccccc5)nc4c3)c3c(N)nccn32)C1 [Linsitinib] (partner 1 µM) (assay: relative viability (nuclei count vs DMSO), 5 days (fraction); higher = more cells survive). Details: first compound 0.01 µM; main component drawn.
Summary of the method: (§1)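 Relative viability is defined as nuclei in treated wells over nuclei in vehicle wells. Duplicate plates were run and medians reported. Lung cancer cell lines in 1536-well plates were dosed by pin tool one day after seeding, with one drug or with a fixed anchor-drug dose plus five library-drug doses (not always all listed) in √10 steps, and nuclei were counted after 5 days.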

In order of rising relative viability:
1. NCI-H1792  0.515
2. NCI-H2023  0.543
3. NCI-H661  0.563
4. RERF-LC-KJ  0.617
5. NCI-H358  0.674
6. LC-2-ad  0.725
7. NCI-H1944  0.781
8. HCC-15  0.793
9. NCI-H1355  0.794
10. SK-LU-1  0.821
11. PC-3 [JPC-3]  0.865
12. NCI-H1437  0.88
13. NCI-H1975  0.896
14. EKVX  0.909
15. NCI-H1563  0.919
16. ABC-1  0.938
17. NCI-H322M  0.961
18. NCI-H1755  0.97

Same assay, conditions: first compound 0.03162 µM; main component drawn

In order of falling relative viability:
1. NCI-H322M  1.01
2. NCI-H1755  0.992
3. PC-3 [JPC-3]  0.944
4. NCI-H1437  0.936
5. SK-LU-1  0.921
6. NCI-H1563  0.891
7. NCI-H1355  0.838
8. NCI-H1975  0.823
9. EKVX  0.822
10. NCI-H1944  0.815
11. HCC-15  0.804
12. NCI-H358  0.738
13. LC-2-ad  0.691
14. ABC-1  0.647
15. RERF-LC-KJ  0.502
16. NCI-H1792  0.484
17. NCI-H2023  0.465
18. NCI-H661  0.423

Same assay, conditions: first compound 0.1 µM; main component drawn

In order of falling relative viability:
1. NCI-H1755  0.981
2. NCI-H322M  0.95
3. SK-LU-1  0.929
4. EKVX  0.859
5. NCI-H1437  0.85
6. PC-3 [JPC-3]  0.847
7. NCI-H1975  0.806
8. NCI-H1355  0.783
9. HCC-15  0.763
10. NCI-H1563  0.749
11. NCI-H358  0.666
12. ABC-1  0.63
13. RERF-LC-KJ  0.502
14. NCI-H1944  0.5
15. LC-2-ad  0.352
16. NCI-H2023  0.321
17. NCI-H661  0.312
18. NCI-H1792  0.281

Same assay, conditions: first compound 0.3162 µM; main component drawn

In order of rising relative viability:
1. NCI-H2023  0.143
2. LC-2-ad  0.178
3. NCI-H1792  0.202
4. NCI-H661  0.221
5. RERF-LC-KJ  0.233
6. NCI-H1975  0.315
7. ABC-1  0.355
8. EKVX  0.375
9. NCI-H1437  0.417
10. HCC-15  0.418
11. NCI-H358  0.455
12. NCI-H1355  0.463
13. SK-LU-1  0.471
14. NCI-H1944  0.507
15. NCI-H1563  0.642
16. PC-3 [JPC-3]  0.723
17. NCI-H1755  0.767
18. NCI-H322M  1.1

Same assay, conditions: first compound 1 µM; main component drawn

In order of rising relative viability:
1. NCI-H2023  0.106
2. LC-2-ad  0.118
3. NCI-H1792  0.189
4. NCI-H661  0.217
5. RERF-LC-KJ  0.22
6. NCI-H1975  0.221
7. NCI-H1944  0.238
8. ABC-1  0.248
9. NCI-H1355  0.287
10. HCC-15  0.288
11. EKVX  0.336
12. NCI-H1437  0.357
13. SK-LU-1  0.39
14. NCI-H358  0.39
15. PC-3 [JPC-3]  0.53
16. NCI-H1755  0.618
17. NCI-H1563  0.623
18. NCI-H322M  0.684

Each cell line was assayed with CC1=C(N=C(N=C1N)[C@H](CC(=O)N)NC[C@@H](C(=O)N)N)C(=O)N[C@@H]([C@H](C2=CN=CN2)OC3C(C(C(C(O3)CO)O)O)OC4C(C(C(C(O4)CO)O)OC(=O)N)O)C(=O)N[C@H](C)[C@H]([C@H](C)C(=O)N[C@@H]([C@@H](C)O)C(=O)NCCC5=NC(=CS5)C6=NC(=CS6)C(=O)NCCC[S+](C)C)O [Bleomycin] + C[C@@H](Oc1cc(-c2cnn(C3CCNCC3)c2)cnc1N)c1c(Cl)ccc(F)c1Cl [Crizotinib] (partner 1 µM) in the same assay as above. Details: first compound 0.01 µM; main component drawn.
Summary of the method: as §1

In order of falling relative viability:
1. NCI-H1355  0.948
2. NCI-H1792  0.886
3. EKVX  0.87
4. NCI-H661  0.82
5. SK-LU-1  0.816
6. PC-3 [JPC-3]  0.811
7. NCI-H1437  0.803
8. ABC-1  0.799
9. NCI-H1975  0.774
10. NCI-H1755  0.771
11. HCC-15  0.731
12. NCI-H1563  0.714
13. NCI-H322M  0.701
14. NCI-H1944  0.544
15. RERF-LC-KJ  0.541
16. NCI-H358  0.484
17. NCI-H2023  0.473
18. LC-2-ad  0.428

Same assay, conditions: first compound 0.03162 µM; main component drawn

In order of rising relative viability:
1. LC-2-ad  0.404
2. NCI-H2023  0.447
3. NCI-H358  0.486
4. RERF-LC-KJ  0.513
5. NCI-H1944  0.565
6. NCI-H1975  0.693
7. NCI-H1563  0.694
8. HCC-15  0.725
9. ABC-1  0.769
10. EKVX  0.803
11. NCI-H1437  0.811
12. NCI-H1755  0.841
13. NCI-H322M  0.852
14. NCI-H661  0.943
15. NCI-H1792  0.971
16. PC-3 [JPC-3]  1
17. NCI-H1355  1.03
18. SK-LU-1  1.11

Same assay, conditions: first compound 0.1 µM; main component drawn

In order of rising relative viability:
1. LC-2-ad  0.326
2. NCI-H2023  0.346
3. RERF-LC-KJ  0.421
4. NCI-H1944  0.432
5. NCI-H358  0.514
6. HCC-15  0.627
7. ABC-1  0.659
8. NCI-H1975  0.662
9. NCI-H1792  0.675
10. EKVX  0.7
11. NCI-H1563  0.723
12. NCI-H1437  0.736
13. NCI-H661  0.745
14. SK-LU-1  0.797
15. NCI-H1755  0.827
16. PC-3 [JPC-3]  0.872
17. NCI-H322M  0.908
18. NCI-H1355  0.926

Same assay, conditions: first compound 0.3162 µM; main component drawn

In order of falling relative viability:
1. NCI-H322M  0.958
2. PC-3 [JPC-3]  0.689
3. NCI-H1563  0.594
4. NCI-H1755  0.593
5. NCI-H1355  0.538
6. NCI-H661  0.508
7. NCI-H1437  0.476
8. EKVX  0.448
9. SK-LU-1  0.446
10. HCC-15  0.326
11. NCI-H1975  0.319
12. NCI-H1792  0.312
13. NCI-H358  0.29
14. NCI-H1944  0.237
15. RERF-LC-KJ  0.23
16. LC-2-ad  0.226
17. ABC-1  0.191
18. NCI-H2023  0.131

Same assay, conditions: first compound 1 µM; main component drawn

In order of falling relative viability:
1. NCI-H1755  0.567
2. NCI-H322M  0.527
3. NCI-H1563  0.518
4. PC-3 [JPC-3]  0.485
5. SK-LU-1  0.428
6. NCI-H661  0.425
7. NCI-H1437  0.382
8. EKVX  0.316
9. NCI-H1355  0.298
10. LC-2-ad  0.275
11. NCI-H358  0.263
12. NCI-H1792  0.258
13. HCC-15  0.242
14. NCI-H1975  0.241
15. RERF-LC-KJ  0.197
16. NCI-H1944  0.186
17. ABC-1  0.161
18. NCI-H2023  0.104
